In patent US20100311714A1, “1H-IMIDAZO[4,5-c]QUINOLINONE COMPOUNDS” (priority 2009, published 2010):
Like-named read-outs stand apart in the source and are kept apart here.

Columns and labels:
[1] = tested on: PKB Ser473 phosphorylation in Rat1-myr-HA-p110 delta cells; experiment: Reverse protein array, PKB Ser473 phosphorylation in Rat1-myr-HA-p110 delta cells; assay type: cell-based; conditions: Rattus norvegicus, 0.5 h, 30 minutes compound incubation, read-out: p-PKB/IC50_delta
mTOR = biological target: T1, mTOR (Homo sapiens, UniProt P42345); experiment: Biochemical assay for m-TOR by TR-FRET
T1 construct: purchased Invitrogen Corporation (Carlsbad/Calif., USA) PV4753
Method in brief: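 mTOR (0.5 nM) phosphorylates GFP-4EBP1 (400 nM) with 8 μM ATP at rt in 50 mM HEPES pH 7.5, 10 mM MnCl2, 50 mM NaCl, 1 mM EGTA, 1 mM DTT; compounds 0.003–10 μM final. EDTA stop with Tb-anti-p4EBP1[pT46] antibody (0.5 nM); TR-FRET read after 15 min against no-enzyme and vehicle controls.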

[2] = Parallel Artificial Membrane Permeability Assay (PAMPA) at pH 6.8; assay type: physicochemical
Source text: The physicochemical properties of relevance for the absorption of the compound, such as the solubility and the membrane permeability, especially at a pH close to neutral pH can be measured using the procedure as described by L. ZHOU et al. in JOURNAL OF PHARMACEUTICAL SCIENCES, VOL. 96, NO. 11, p. 3052-3071 (2007) for the solubility at pH 6.8 and the procedure as described by F. Wohnsland and B. Faller in Journal of Medicinal Chemistry Vol 44, p. 923-930 (2001) for the Parallel Artificial Membrane Permeability Assay (PAMPA) at pH 6.8.
The following permeability log Pe was measured for compound of formula (I) as exemplified below: […]

T1 sequence (P42345 1360-2549 limits assumed): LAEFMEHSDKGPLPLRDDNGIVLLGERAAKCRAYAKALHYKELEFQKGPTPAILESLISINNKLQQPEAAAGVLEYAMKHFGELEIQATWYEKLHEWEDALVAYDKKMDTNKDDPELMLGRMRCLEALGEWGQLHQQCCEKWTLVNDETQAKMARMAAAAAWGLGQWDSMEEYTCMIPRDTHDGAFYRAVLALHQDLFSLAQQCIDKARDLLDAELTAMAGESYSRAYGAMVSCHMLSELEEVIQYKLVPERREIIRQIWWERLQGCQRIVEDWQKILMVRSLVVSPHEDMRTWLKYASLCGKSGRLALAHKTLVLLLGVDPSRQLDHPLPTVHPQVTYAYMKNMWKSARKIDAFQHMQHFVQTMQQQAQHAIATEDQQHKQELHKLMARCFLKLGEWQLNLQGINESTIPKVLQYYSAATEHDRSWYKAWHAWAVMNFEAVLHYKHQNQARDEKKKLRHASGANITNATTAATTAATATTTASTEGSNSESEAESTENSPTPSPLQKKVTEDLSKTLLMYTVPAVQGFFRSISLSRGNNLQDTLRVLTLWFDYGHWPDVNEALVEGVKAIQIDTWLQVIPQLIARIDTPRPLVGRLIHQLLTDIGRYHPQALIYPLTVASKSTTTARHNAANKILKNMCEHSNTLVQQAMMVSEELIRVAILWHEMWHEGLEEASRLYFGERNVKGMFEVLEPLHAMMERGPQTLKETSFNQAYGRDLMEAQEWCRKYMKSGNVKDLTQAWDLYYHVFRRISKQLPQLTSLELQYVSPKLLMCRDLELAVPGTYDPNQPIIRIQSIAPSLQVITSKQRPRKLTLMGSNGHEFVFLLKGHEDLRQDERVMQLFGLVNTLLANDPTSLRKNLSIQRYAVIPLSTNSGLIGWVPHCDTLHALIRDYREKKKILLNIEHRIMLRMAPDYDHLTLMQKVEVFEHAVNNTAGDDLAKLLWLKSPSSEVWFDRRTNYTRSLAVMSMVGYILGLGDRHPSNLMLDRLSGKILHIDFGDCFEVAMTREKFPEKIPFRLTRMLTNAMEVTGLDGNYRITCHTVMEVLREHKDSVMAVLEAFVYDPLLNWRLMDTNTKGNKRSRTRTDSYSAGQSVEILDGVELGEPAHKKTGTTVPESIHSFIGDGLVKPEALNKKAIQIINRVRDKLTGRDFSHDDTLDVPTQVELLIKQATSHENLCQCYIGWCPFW

SMILES	IC50 [1] [nM]	IC50 (mTOR; read-out: EPK_mTOR/IC50) [nM]	HT-Perm logPe pH6.8 [2]	IC50 (mTOR; read-out: mTOR/IC50) [nM]	HT-perm/logPe pH6.8 [2]
CNc1cc(-c2ccc3ncc4c(c3c2)n(-c2cccnc2C)c(=O)n4C)cnc1C [Example 2.32, 3-Methyl-8-(6-methyl-5-methylamino-pyridin-3-yl)-1-(2-methyl-pyridin-3-yl)-1,3-dihydro-imidazo[4,5-c]quinolin-2-one]	33.7	7	−4.8		
Cn1c(=O)n(-c2cccnc2F)c2c3cc(-c4cnc(N)c(C(F)(F)F)c4)ccc3ncc21 [Example 6.2, 8-(6-Amino-5-trifluoromethyl-pyridin-3-yl)-1-(2-fluoro-pyridin-3-yl)-3-methyl-1,3-dihydro-imidazo[4,5-c]quinolin-2-one]	11.5			15	−3.8
Cc1ncccc1-n1c(=O)n(C)c2cnc3ccc(-c4cncc(NC(C)C)c4)cc3c21 [Example 2.24, 8-(5-Isopropylamino-pyridin-3-yl)-3-methyl-1-(2-methyl-pyridin-3-yl)-1,3-dihydro-imidazo[4,5-c]quinolin-2-one]	28.9	29	−4.5		
CNc1cncc(-c2ccc3ncc4c(c3c2)n(-c2cccnc2C)c(=O)n4C)c1 [Example 2.26, 3-Methyl-8-(5-methylamino-pyridin-3-yl)-1-(2-methyl-pyridin-3-yl)-1,3-dihydro-imidazo[4,5-c]quinolin-2-one]	67.3	22	−5.3		
Cc1ccncc1-n1c(=O)n(C)c2cnc3ccc(-c4ccc(CO)nc4)cc3c21 [Example 4.1, 8-(6-Hydroxymethyl-pyridin-3-yl)-3-methyl-1-(4-methyl-pyridin-3-yl)-1,3-dihydro-imidazo[4,5-c]quinolin-2-one]					−6.1
CCOc1cc(-c2ccc3ncc4c(c3c2)n(-c2cccnc2C)c(=O)n4C)cnc1COC [Example 2.28, 8-(5-Ethoxy-6-methoxymethyl-pyridin-3-yl)-3-methyl-1-(2-methyl-pyridin-3-yl)-1,3-dihydro-imidazo[4,5-c]quinolin-2-one]	218	58	−4.3		
CCOc1ncc(-c2ccc3ncc4c(c3c2)n(-c2ncccc2C)c(=O)n4C)cn1 [Example 3.1, 8-(2-Ethoxy-pyrimidin-5-yl)-3-methyl-1-(3-methyl-pyridin-2-yl)-1,3-dihydro-imidazo[4,5-c]quinolin-2-one]					−3.8
COc1ccc(-c2ccc3ncc4c(c3c2)n(-c2ncccc2C)c(=O)n4C)cc1OC [Example 3.10, 8-(3,4-Dimethoxy-phenyl)-3-methyl-1-(3-methyl-pyridin-2-yl)-1,3-dihydro-imidazo[4,5-c]quinolin-2-one]	479				−3.8
Cc1cccnc1-n1c(=O)n(C)c2cnc3ccc(-c4ccc(N(C)C)nc4)cc3c21 [Example 3.11, 8-(6-Dimethylamino-pyridin-3-yl)-3-methyl-1-(3-methyl-pyridin-2-yl)-1,3-dihydro-imidazo[4,5-c]quinolin-2-one]					−3.4
CCOc1ccc(-c2ccc3ncc4c(c3c2)n(-c2cnccc2C)c(=O)n4C)cn1 [Example 4.2, 8-(6-Ethoxy-pyridin-3-yl)-3-methyl-1-(4-methyl-pyridin-3-yl)-1,3-dihydro-imidazo[4,5-c]quinolin-2-one]					−3.5

The remaining lines, values ahead:

IC50 [1] [nM]	IC50 (mTOR; read-out: EPK_mTOR/IC50) [nM]	HT-Perm logPe pH6.8 [2]	IC50 (mTOR; read-out: mTOR/IC50) [nM]	HT-perm/logPe pH6.8 [2]	SMILES
19.3			8	−4.3	CNc1ccc(-c2ccc3ncc4c(c3c2)n(-c2ccc(F)nc2C)c(=O)n4C)cn1 [Example 7.4, 1-(6-Fluoro-2-methyl-pyridin-3-yl)-3-methyl-8-(6-methylamino-pyridin-3-yl)-1,3-dihydro-imidazo[4,5-c]quinolin-2-one]
216	137	−4.2			COCc1ncc(-c2ccc3ncc4c(c3c2)n(-c2ccc(N3CCC3)nc2C)c(=O)n4C)cc1OC [Example 23.6, 1-(6-Azetidin-1-yl-2-methyl-pyridin-3-yl)-8-(5-methoxy-6-methoxymethyl-pyridin-3-yl)-3-methyl-1,3-dihydro-imidazo[4,5-c]quinolin-2-one]
24.7			8	−3.8	Cc1nc(F)ccc1-n1c(=O)n(C)c2cnc3ccc(-c4cnc(N)c(C(F)(F)F)c4)cc3c21 [Example 7.1, 8-(6-Amino-5-trifluoromethyl-pyridin-3-yl)-1-(6-fluoro-2-methyl-pyridin-3-yl)-3-methyl-1,3-dihydro-imidazo[4,5-c]quinolin-2-one]
123	44	−3.7			COCc1ncc(-c2ccc3ncc4c(c3c2)n(-c2ccc(N3CCC3)nc2C)c(=O)n4C)cc1OC(C)C [Example 23.2, 1-(6-Azetidin-1-yl-2-methyl-pyridin-3-yl)-8-(5-isopropoxy-6-methoxymethyl-pyridin-3-yl)-3-methyl-1,3-dihydro-imidazo[4,5-c]quinolin-2-one]
80.1	37	−3.7			Cc1nc(N2CCC2)ccc1-n1c(=O)n(C)c2cnc3ccc(-c4cncc(OC(C)C)c4)cc3c21 [Example 23.9, 1-(6-Azetidin-1-yl-2-methyl-pyridin-3-yl)-8-(5-isopropoxy-pyridin-3-yl)-3-methyl-1,3-dihydro-imidazo[4,5-c]quinolin-2-one]
59	15	−5.3			COc1ncc(-c2ccc3ncc4c(c3c2)n(-c2ccc(N3CC[C@H](O)C3)nc2C)c(=O)n4C)c(OC)n1 [Example 32.3, 8-(2,4-Dimethoxy-pyrimidin-5-yl)-1-[6-((S)-3-hydroxy-pyrrolidin-1-yl)-2-methyl-pyridin-3-yl]-3-methyl-1,3-dihydro-imidazo[4,5-c]quinolin-2-one]
10.4	3	−4.9			CNc1ncc(-c2ccc3ncc4c(c3c2)n(-c2ccc(N(C)CCO)nc2C)c(=O)n4C)cn1 [Example 26.2, 1-{6-[(2-Hydroxy-ethyl)-methyl-amino]-2-methyl-pyridin-3-yl}-3-methyl-8-(2-methylamino-pyrimidin-5-yl)-1,3-dihydro-imidazo[4,5-c]quinolin-2-one]
85.8			59	−3.7	CCOc1ccc(-c2ccc3ncc4c(c3c2)n(-c2ccc(F)nc2C)c(=O)n4C)cn1 [Example 7.3, 8-(6-Ethoxy-pyridin-3-yl)-1-(6-fluoro-2-methyl-pyridin-3-yl)-3-methyl-1,3-dihydro-imidazo[4,5-c]quinolin-2-one]
	21	−4.6			CCNc1ncc(-c2ccc3ncc4c(c3c2)n(-c2ccc(C(C)(C)O)nc2C)c(=O)n4C)cn1 [Example 31.7, 8-(2-Ethylamino-pyrimidin-5-yl)-1-[6-(1-hydroxy-1-methyl-ethyl)-2-methyl-pyridin-3-yl]-3-methyl-1,3-dihydro-imidazo[4,5-c]quinolin-2-one]
	122	−4.3			Cc1nc(C(C)(C)O)ccc1-n1c(=O)n(C)c2cnc3ccc(-c4cncc(C5(C#N)CCC5)c4)cc3c21 [Example 31.8, 1-(5-{1-[6-(1-Hydroxy-1-methyl-ethyl)-2-methyl-pyridin-3-yl]-3-methyl-2-oxo-2,3-dihydro-1H-imidazo[4,5-c]quinolin-8-yl}-pyridin-3-yl)-cyclobutanecarbonitrile]
	6	−4.3			Cc1nc(C(C)(C)O)ccc1-n1c(=O)n(C)c2cnc3ccc(-c4cnc(N)c(C(F)(F)F)c4)cc3c21 [Example 31.5, 8-(6-Amino-5-trifluoromethyl-pyridin-3-yl)-1-[6-(1-hydroxy-1-methyl-ethyl)-2-methyl-pyridin-3-yl]-3-methyl-1,3-dihydro-imidazo[4,5-c]quinolin-2-one]
	75	−3.7			CCOc1ccc(-c2ccc3ncc4c(c3c2)n(-c2ccc(C(C)(C)O)nc2C)c(=O)n4C)cn1 [Example 31.4, 8-(6-Ethoxy-pyridin-3-yl)-1-[6-(1-hydroxy-1-methyl-ethyl)-2-methyl-pyridin-3-yl]-3-methyl-1,3-dihydro-imidazo[4,5-c]quinolin-2-one]
	95	−4.4			Cc1nc(C(C)(C)O)ccc1-n1c(=O)n(C)c2cnc3ccc(-c4cncc(C(C)(C)C#N)c4)cc3c21 [Example 31.6, 2-(5-{1-[6-(1-Hydroxy-1-methyl-ethyl)-2-methyl-pyridin-3-yl]-3-methyl-2-oxo-2,3-dihydro-1H-imidazo[4,5-c]quinolin-8-yl}-pyridin-3-yl)-2-methyl-propionitrile]
23.8	6				CNc1ccc(-c2ccc3ncc4c(c3c2)n(-c2ccc(N3CCC3)nc2C)c(=O)n4C)cn1 [Example 23.4, 1-(6-Azetidin-1-yl-2-methyl-pyridin-3-yl)-3-methyl-8-(6-methylamino-pyridin-3-yl)-1,3-dihydro-imidazo[4,5-c]quinolin-2-one]
